Assays:
[1] = system: angiotensin II-induced pressor responses; assay: Test C: antagonism of angiotensin II-induced pressor responses in vivo; settings: Rattus norvegicus, iv; i.v. administration; rats; read-out: ED₅₀
Experimental: In general, compounds of formula VI as defined above show significant inhibition in Test B at a final concentration of 50 micromolar or much less. Test C: This in vivo test involves using terminally-anaesthetised or conscious rats in which an arterial catheter has been implanted under anaesthesia for the measurement of changes in blood pressure. The AII antagonistic effects of the test compound following oral or parenteral administration, are assessed against angiotensin II-induced pressor responses. To ensure that the effect is specific, the effect of the test compound on vasopressin-induced pressor responses may also be determined in the same preparation.

[2] = system: AII-induced contractions of isolated rabbit aorta; assay: Test B: antagonism of AII-induced contractions of isolated aorta; type: cell-based; settings: Oryctolagus cuniculus, 37°C, average, read-out: average pA₂ (converted)
Experimental: In general, compounds of formula VI as defined above show significant inhibition in Test A at a concentration of 50 micromolar or much less. Test B: This in vitro test involves the measurement of the antagonistic effects of the test compound against AII-induced contractions of isolated rabbit aorta, maintained in a physiological salt solution at 37°C. In order to ensure that the effect of the compound is specific to antagonism of AII, the effect of the test compound on noradrenaline-induced contractions may also be determined in the same preparation.

`Cc1cc(OCc2ccc(-c3ccccc3-c3nnn[nH]3)cc2)c2ccccc2n1.Cl` [2-methyl-4-[(2′-(1H-tetrazol-5-yl)biphenyl-4-yl)methoxy]quinoline hydrochloride] showed an ED50 [1] of 0.5 mg/kg and a Kb [2] of 1.12 nM.

— patent EP0470794A1, “Process for the preparation of nitriles” (ZENECA LIMITED, priority 1990, dated 1992)
